Experimental data from PubChem BioAssay AID252 (DTP/NCI, 2004).
Several values for one entry are separate records, joined by “and”; a condition that tells them apart may be missing. Equal values may be shown once. Toxic doses and inconclusive results are not listed.

Tested on: BDF1 mice, intracerebral L1210 leukemia, survival T/C
Assay: NCI In Vivo Anticancer Drug Screen. Data for tumor model L1210 Leukemia (intracerebral) in B6D2F1 (BDF1) mice
Details: higher = longer survival
Outline: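 Antitumour effect is judged in mice with transplanted tumour by comparing survival of treated (T) against vehicle-dosed (C) groups as T/C.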

[1] = endpoint: mean survival time, dose: 1.5 mg/kg/injection, schedule: Q01DX001 (ip), vehicle: carboxymethylcellulose (CMC)
[2] = endpoint: mean survival time, dose: 3.0 mg/kg/injection, schedule: Q01DX001 (ip), vehicle: carboxymethylcellulose (CMC)
[3] = endpoint: mean survival time, dose: 5.0 mg/kg/injection, schedule: Q01DX001 (ip), vehicle: carboxymethylcellulose (CMC)
[4] = endpoint: mean survival time, dose: 8.0 mg/kg/injection, schedule: Q01DX001 (ip), vehicle: carboxymethylcellulose (CMC)
[5] = endpoint: mean survival time, dose: 12.0 mg/kg/injection, schedule: Q01DX001 (ip), vehicle: carboxymethylcellulose (CMC)
[6] = endpoint: mean survival time, dose: 18.0 mg/kg/injection, schedule: Q01DX001 (ip), vehicle: carboxymethylcellulose (CMC)

SMILES: CCCCCCC(=O)NC1=C(N2CC2)C(=O)C(NC(=O)CCCCCC)=C(N2CC2)C1=O
- T/C (endpoint: mean survival time, dose: 20.0 mg/kg/injection, schedule: Q01DX009 (ip), vehicle: Klucel (hydroxypropylcellulose) (HPC)): 100 % of control
- T/C (endpoint: mean survival time, dose: 40.0 mg/kg/injection, schedule: Q01DX009 (ip), vehicle: Klucel (hydroxypropylcellulose) (HPC)): 105 % of control
- T/C (endpoint: mean survival time, dose: 80.0 mg/kg/injection, schedule: Q01DX009 (ip), vehicle: Klucel (hydroxypropylcellulose) (HPC)): 120 % of control
- T/C (endpoint: mean survival time, dose: 160.0 mg/kg/injection, schedule: Q01DX009 (ip), vehicle: Klucel (hydroxypropylcellulose) (HPC)): 106 % of control

SMILES: CSc1ncnc2c1ncn2C1OC(CO)C(O)C1O (centres undefined)
- T/C (endpoint: mean survival time, dose: 25.0 mg/kg/injection, schedule: Q01DX Z (ip), vehicle: saline): 113 % of control
- T/C (endpoint: mean survival time, dose: 50.0 mg/kg/injection, schedule: Q01DX Z (ip), vehicle: saline): 92 % of control

SMILES: O=c1[nH]cc(N(CCCl)CCCl)c(=O)[nH]1
- T/C (endpoint: mean survival time, dose: 0.75 mg/kg/injection, schedule: Q01DX015 (ip), vehicle: carboxymethylcellulose (CMC)): 114 % of control
- T/C (endpoint: mean survival time, dose: 1.1 mg/kg/injection, schedule: Q01DX015 (ip), vehicle: carboxymethylcellulose (CMC)): 123 % of control
- T/C [1]: 106 % of control
- T/C (endpoint: mean survival time, dose: 2.4 mg/kg/injection, schedule: Q01DX001 (ip), vehicle: carboxymethylcellulose (CMC)): 111 % of control
- T/C (endpoint: mean survival time, dose: 3.6 mg/kg/injection, schedule: Q01DX001 (ip), vehicle: carboxymethylcellulose (CMC)): 102 % of control

SMILES: O=NN(CCCl)C(=O)Nc1cc(NC(=O)N(CCCl)N=O)cc(C(=O)O)c1
- T/C [1]: 108 % of control
- T/C [2]: 106 % of control
- T/C [3]: 104 % of control
- T/C [4]: 104 % of control
- T/C [5]: 102 % of control
- T/C [6]: 110 % of control
- T/C (endpoint: mean survival time, dose: 26.0 mg/kg/injection, schedule: Q01DX001 (ip), vehicle: carboxymethylcellulose (CMC)): 106 % of control
- T/C (endpoint: mean survival time, dose: 40.0 mg/kg/injection, schedule: Q01DX001 (ip), vehicle: carboxymethylcellulose (CMC)): 93 % of control
- T/C (endpoint: mean survival time, dose: 60.0 mg/kg/injection, schedule: Q01DX001 (ip), vehicle: carboxymethylcellulose (CMC)): 87 % of control

SMILES: CCCCCCCCCCCCCCCC(=O)Nc1ccn(C2OC(CO)C(O)C2O)c(=O)n1 (centres undefined)
- T/C (endpoint: median survival time, dose: 12.5 mg/kg/injection, schedule: Q01DX009 (ip), vehicle: distilled water + Tween-80 + alcohol): 214 % of control
- T/C (endpoint: median survival time, dose: 25.0 mg/kg/injection, schedule: Q01DX009 (ip), vehicle: distilled water + Tween-80 + alcohol): 269 % of control

SMILES: O=NN(CCCl)C(=O)NC1CCSCC1
- T/C [2]: 114 % of control
- T/C [3]: 152 % of control and 154 % of control
- T/C (endpoint: mean survival time, dose: 6.0 mg/kg/injection, schedule: Q01DX001 (ip), vehicle: carboxymethylcellulose (CMC)): 161 % of control
- T/C [4]: 203 % of control and 208 % of control
- T/C (endpoint: mean survival time, dose: 9.0 mg/kg/injection, schedule: Q01DX001 (ip), vehicle: carboxymethylcellulose (CMC)): 217 % of control
- T/C [5]: 245 % of control and 316 % of control
- T/C (endpoint: mean survival time, dose: 14.0 mg/kg/injection, schedule: Q01DX001 (ip), vehicle: carboxymethylcellulose (CMC)): 286 % of control
- T/C [6]: 230 % of control
- T/C (endpoint: mean survival time, dose: 21.0 mg/kg/injection, schedule: Q01DX001 (ip), vehicle: carboxymethylcellulose (CMC)): 155 % of control
- T/C (endpoint: mean survival time, dose: 27.0 mg/kg/injection, schedule: Q01DX001 (ip), vehicle: carboxymethylcellulose (CMC)): 94 % of control
- T/C (endpoint: mean survival time, dose: 32.0 mg/kg/injection, schedule: Q01DX001 (ip), vehicle: carboxymethylcellulose (CMC)): 93 % of control

SMILES: COc1ccc(NC(=O)N(C)N=O)cc1
- T/C (endpoint: mean survival time, dose: 67.0 mg/kg/injection, schedule: Q01DX001 (ip), vehicle: carboxymethylcellulose (CMC)): 94 % of control
- T/C (endpoint: mean survival time, dose: 100.0 mg/kg/injection, schedule: Q01DX001 (ip), vehicle: carboxymethylcellulose (CMC)): 90 % of control

SMILES: CCC(=O)NC1=C(N2CC2C)C(=O)C(NC(=O)CC)=C(N2CC2C)C1=O (centres undefined)
- T/C (endpoint: mean survival time, dose: 1.56 mg/kg/injection, schedule: Q01DX009 (ip), vehicle: Klucel (hydroxypropylcellulose) (HPC)): 96 % of control
- T/C (endpoint: mean survival time, dose: 3.12 mg/kg/injection, schedule: Q01DX009 (ip), vehicle: Klucel (hydroxypropylcellulose) (HPC)): 94 % of control
- T/C (endpoint: mean survival time, dose: 12.5 mg/kg/injection, schedule: Q01DX009 (ip), vehicle: Klucel (hydroxypropylcellulose) (HPC)): 122 % of control and 335 % of control
- T/C (endpoint: mean survival time, dose: 25.0 mg/kg/injection, schedule: Q01DX009 (ip), vehicle: Klucel (hydroxypropylcellulose) (HPC)): 101 % of control and 107 % of control

SMILES: CCNC(=O)N(CC)N=O
- T/C (endpoint: mean survival time, dose: 222.0 mg/kg/injection, schedule: Q01DX001 (ip), vehicle: saline): 100 % of control
- T/C (endpoint: mean survival time, dose: 333.0 mg/kg/injection, schedule: Q01DX001 (ip), vehicle: saline): 110 % of control
- T/C (endpoint: mean survival time, dose: 500.0 mg/kg/injection, schedule: Q01DX001 (ip), vehicle: saline): 123 % of control

SMILES: N#[N+]c1cnc([O-])[nH]c1=O
- T/C (endpoint: mean survival time, dose: 5.0 mg/kg/injection, schedule: Q01DX015 (ip), vehicle: alkali diluted with saline): 102 % of control
- T/C (endpoint: mean survival time, dose: 7.7 mg/kg/injection, schedule: Q01DX015 (ip), vehicle: alkali diluted with saline): 101 % of control
- T/C (endpoint: mean survival time, dose: 11.5 mg/kg/injection, schedule: Q01DX015 (ip), vehicle: alkali diluted with saline): 106 % of control
- T/C (endpoint: mean survival time, dose: 12.0 mg/kg/injection, schedule: Q01DX001 (ip), vehicle: alkali diluted with saline): 97 % of control
- T/C (endpoint: mean survival time, dose: 15.0 mg/kg/injection, schedule: Q01DX Z (ip), vehicle: alkali diluted with saline): 101 % of control
- T/C (endpoint: mean survival time, dose: 19.0 mg/kg/injection, schedule: Q01DX001 (ip), vehicle: alkali diluted with saline): 102 % of control
- T/C (endpoint: mean survival time, dose: 20.0 mg/kg/injection, schedule: Q01DX Z (ip), vehicle: alkali diluted with saline): 97 % of control
- T/C (endpoint: mean survival time, dose: 25.0 mg/kg/injection, schedule: Q01DX Z (ip), vehicle: alkali diluted with saline): 92 % of control
- T/C (endpoint: mean survival time, dose: 29.0 mg/kg/injection, schedule: Q01DX001 (ip), vehicle: alkali diluted with saline): 106 % of control
- T/C (endpoint: mean survival time, dose: 40.0 mg/kg/injection, schedule: Q01DX Z (ip), vehicle: alkali diluted with saline): 91 % of control

SMILES: CC1CCC(NC(=O)N(CCF)N=O)CC1 (centres undefined)
- T/C (endpoint: mean survival time, dose: 20.0 mg/kg/injection, schedule: Q01DX001 (ip), vehicle: other): 117 % of control
- T/C (endpoint: mean survival time, dose: 44.0 mg/kg/injection, schedule: Q01DX001 (ip), vehicle: other): 212 % of control
- T/C (endpoint: mean survival time, dose: 66.0 mg/kg/injection, schedule: Q01DX001 (ip), vehicle: other): 341 % of control

SMILES: O=NN(CCF)C(=O)NCCCl
- T/C (endpoint: mean survival time, dose: 9.0 mg/kg/injection, schedule: Q01DX001 (ip), vehicle: Klucel (hydroxypropylcellulose) (HPC)): 156 % of control and 203 % of control
- T/C (endpoint: mean survival time, dose: 14.0 mg/kg/injection, schedule: Q01DX001 (ip), vehicle: Klucel (hydroxypropylcellulose) (HPC)): 233 % of control and 338 % of control
- T/C (endpoint: mean survival time, dose: 21.0 mg/kg/injection, schedule: Q01DX001 (ip), vehicle: Klucel (hydroxypropylcellulose) (HPC)): 456 % of control and 513 % of control
- T/C (endpoint: mean survival time, dose: 32.0 mg/kg/injection, schedule: Q01DX001 (ip), vehicle: Klucel (hydroxypropylcellulose) (HPC)): 622 % of control and 710 % of control
- T/C (endpoint: mean survival time, dose: 48.0 mg/kg/injection, schedule: Q01DX001 (ip), vehicle: Klucel (hydroxypropylcellulose) (HPC)): 727 % of control
- T/C (endpoint: mean survival time, dose: 71.0 mg/kg/injection, schedule: Q01DX001 (ip), vehicle: Klucel (hydroxypropylcellulose) (HPC)): 228 % of control

SMILES: O=NN(CCF)C(=O)NC1CCC(NC(=O)N(CCF)N=O)CC1 (centres undefined)
- T/C (endpoint: mean survival time, dose: 10.0 mg/kg/injection, schedule: Q01DX001 (ip), vehicle: other): 110 % of control
- T/C (endpoint: mean survival time, dose: 25.0 mg/kg/injection, schedule: Q01DX001 (ip), vehicle: other): 120 % of control
- T/C (endpoint: mean survival time, dose: 30.0 mg/kg/injection, schedule: Q01DX001 (ip), vehicle: other): 155 % of control
- T/C (endpoint: mean survival time, dose: 40.0 mg/kg/injection, schedule: Q01DX001 (ip), vehicle: other): 193 % of control
- T/C (endpoint: mean survival time, dose: 50.0 mg/kg/injection, schedule: Q01DX001 (ip), vehicle: other): 224 % of control
- T/C (endpoint: mean survival time, dose: 60.0 mg/kg/injection, schedule: Q01DX001 (ip), vehicle: other): 202 % of control
- T/C (endpoint: mean survival time, dose: 80.0 mg/kg/injection, schedule: Q01DX001 (ip), vehicle: other): 293 % of control and 329 % of control
- T/C (endpoint: mean survival time, dose: 110.0 mg/kg/injection, schedule: Q01DX001 (ip), vehicle: other): 294 % of control
- T/C (endpoint: mean survival time, dose: 120.0 mg/kg/injection, schedule: Q01DX001 (ip), vehicle: other): 319 % of control and 334 % of control
- T/C (endpoint: mean survival time, dose: 180.0 mg/kg/injection, schedule: Q01DX001 (ip), vehicle: other): 277 % of control
- T/C (endpoint: mean survival time, dose: 187.0 mg/kg/injection, schedule: Q01DX001 (ip), vehicle: other): 170 % of control
- T/C (endpoint: mean survival time, dose: 240.0 mg/kg/injection, schedule: Q01DX001 (ip), vehicle: other): 262 % of control

SMILES: O=C(NC1=C(N2CC2)C(=O)C(NC(=O)OCCO)=C(N2CC2)C1=O)OCCO
- T/C (endpoint: median survival time, dose: 0.18 mg/kg/injection, schedule: Q01DX009 (ip), vehicle: saline): 100 % of control
- T/C (endpoint: median survival time, dose: 0.39 mg/kg/injection, schedule: Q01DX009 (ip), vehicle: saline): 97 % of control
- T/C (endpoint: median survival time, dose: 0.75 mg/kg/injection, schedule: Q01DX009 (ip), vehicle: saline): 96 % of control and 97 % of control
- T/C (endpoint: median survival time, dose: 1.5 mg/kg/injection, schedule: Q01DX009 (ip), vehicle: saline): 91 % of control and 100 % of control
- T/C (endpoint: median survival time, dose: 3.0 mg/kg/injection, schedule: Q01DX009 (ip), vehicle: saline): 108 % of control and 101 % of control
- T/C (endpoint: median survival time, dose: 6.0 mg/kg/injection, schedule: Q01DX009 (ip), vehicle: saline): 122 % of control and 98 % of control
